Here are results for 9 compounds from patent US11214567B2, “Small molecule inhibitors of MYC and uses thereof” (The Regents of the University of Michigan, priority 2017, dated 2022).

In one experiment the test system is MIA PaCa-2. The experiment can be described thus: MTT assay (cytotoxicity), MIA PaCa-2. The settings on record: Homo sapiens, 72 h, drug concentration causing a 50% decrease in cell population. Format: cell-based. The method, then:
(§1) The evaluation of cytotoxicity was based on the reduction of MTT dye by viable cells to give purple formazan products, which can be measured spectrophotometrically at 540 nm. One hundred eighty microliters of cancer cells were seeded into 96-well plates at 3,500-4,000 cells/well and incubated at 37° C. overnight before the indicated treatments. After 72 h, 20 μl of MTT solution (3 mg/ml) was added and incubated again for 3 h. After removal of media and solubilization of formazan crystals in 150 μL of DMSO, the absorbance was measured at 570 nm. Percentage of cell growth inhibition was expressed as 1-[(A−B)/(C−B)]×100% (A, B and C were the absorbance values from experimental, blank and control cells, respectively).
(§2) KJA derivatives were tested by the MTT assay against five human cancer cell lines including ovarian cancer cell lines (OVCAR-8, NCI/ADR-RES and SKOV3) and pancreatic cancer cell lines (MIA PaCa-2 and Pac-1). […] It is important to note that the NCI/ADR-RES cell line shares a large number of karyotypic abnormalities with OVCAR-8 but expresses high levels of MDR1 (multidrug resistance protein 1)/P-glycoprotein (see, e.g., Xu, S.; et al., Proceedings of the National Academy of Sciences 2012, 109, 16348-16353), resulting in resistance to multiple anticancer drugs in clinical use, including paclitaxel and doxorubicin.
(Tetrazolium dyes change colour on reduction, which living cells bring about.)

The test system of a further experiment is NCI/ADR-RES. The experiment can be described thus: MTT assay (cytotoxicity), NCI/ADR-RES. Format: cell-based, human. Particulars: Homo sapiens, NCI/ADR-RES; MTT, 72 h; drug concentration causing a 50% decrease in cell population. The method, then: as §1, §2
In the next experiment the test system is OVCAR8. Description: MTT assay (cytotoxicity), OVCAR8. Format: cell-based. The settings on record: Homo sapiens, OVCAR-8, 72 h, drug concentration causing a 50% decrease in cell population. The method, then: as §1, §2
The next experiment has as its system SKOV3. The experiment can be described thus: MTT assay (cytotoxicity), SKOV3. Format: cell-based. Particulars: Homo sapiens, SK-OV-3, 72 h, drug concentration causing a 50% decrease in cell population. The method, then:
as §1, §2

The next experiment deals with Panc1. The experiment can be described thus: MTT assay (cytotoxicity), Panc1. Format: cell-based. The settings on record: Homo sapiens, PANC-1, 72 h, drug concentration causing a 50% decrease in cell population. The method, then: as §1, §2
For experiment [1], the system named is c-MYC. Particulars: osteosarcoma, leukemia and lymphoma cells; cited from earlier work.
The test system of experiment [2] is C-MYC. Description: Western blotting of C-MYC protein levels in cancer cells. Type of experiment: cell-based, human. Particulars: NCI/ADR-RES cells; 0.5 μM; positive control. The protocol: Cells (5×10^5) were cultured in 6-well plate and treated with KJA03 at designated concentrations. After treatment, cells were lysed with cell lysis buffer on ice at 4° C., sonicated for 3 min, centrifuged (12,000 rpm, 10 min, 4° C.) and then, the supernatant was collected. Protein concentrations of supernatants were evaluated with BCA assay. Proteins were resolved in 10% SDS/PAGE and electrotransferred to Immun-Blot PVDF membrane (Bio-Rad). After blocking with 5% milk in TBST (Tris-buffered saline with 0.1% Tween 20), membranes were probed with primary antibodies (anti-PARP, anti-caspase 3 and anti-GAPDH) 1:1000 dilutions overnight at 4° C. Membranes were then washed with TBST (5 min×3), incubated with Dylight 800-conjugated secondary antibodies 1:7500 dilutions in 5% milk for 1 h at room temperature, and washed with TBST (5 min×3). Fluorescent signal was then scanned by Odyssey Imaging Systems (LI-COR Biosciences).
The effect of KJA03 on the MYC protein levels, including C-MYC and N-MYC, NCI/ADR-RES cells were treated with KJA03 at concentration of 0.1 (half IC50) and 0.2 (IC50) μM for 24 and 48 h. […] It has previously been reported that JQ1 treatment leads to down-regulation of c-MYC protein levels in osteosarcoma, leukemia and lymphoma cells (see, e.g., Mertz, J. A.; et al., Proceedings of the National Academy of Sciences 2011, 108, 16669-16674).
Experiments were conducted to further repeat the experiment and JQ1 was chosen as a positive control. As expected, expression of C-MYC was reduced by KJA03 at 24 h of treatment, correlated with previous experiment (FIG. 3).
Experiments were conducted that further performed a time-course experiment to evaluate C-MYC suppression including 2, 6, 8 24 and 48 h at concentration of 0.2 μM. To define the specificity of MYC suppression in further detail, we treated cells with a range of compound concentrations at 24 h. […] To determine whether KJA03 can suppress C-MYC in different cell lines, we next investigated the level of C-MYC in response to treatment with KJA03 at 0.2 μM using other three different OVCAR8, MIA PaCa-2 and Panc-1 cell lines.
On the technique in general: In western blotting, separated proteins are transferred to a membrane and probed.

SMILES strings stand for the structures.

As to `COc1cc(-c2nc(-c3ccc(Cl)cc3)no2)c(-n2c(-c3ccc(Cl)cc3)noc2=O)cc1OC` [KJA09, 3-(4-Chlorophenyl)-4-(2-(3-(4-chlorophenyl)-1,2,4-oxadiazol-5-yl)-4,5-dimethoxyphenyl)-1,2,4-oxadiazol-5(4H)-one], the IC50 in the experiment on MIA PaCa-2, in the experiment on NCI/ADR-RES, with OVCAR8, in the experiment on SKOV3 and in the experiment with Panc1 was over 30 µM throughout.

In the case of `COc1cc(-c2nc(-c3ccccc3)no2)c(-n2c(-c3ccccc3)noc2=O)cc1OC` [KJA06, 4-(4,5-Dimethoxy-2-(3-phenyl-1,2,4-oxadiazol-5-yl)phenyl)-3-phenyl-1,2,4-oxadiazol-5(4H)-one], the IC50 in the experiment with MIA PaCa-2, in the experiment on NCI/ADR-RES, in the experiment on OVCAR8, with SKOV3 and in the experiment on Panc1 was over 30 µM throughout.

As for `O=c1onc(-c2ccccc2)n1-c1ccccc1-c1nc(-c2ccccc2)no1` [KJA01, 3-Phenyl-4-(2-(3-phenyl-1,2,4-oxadiazol-5-yl)phenyl)-1,2,4-oxadiazol-5(4H)-one], the IC50 was found to be 2.49 µM in the experiment with MIA PaCa-2; 4.31 ± 0.55 µM in the experiment with NCI/ADR-RES; 4.65 ± 2.05 µM in the experiment with OVCAR8; 5.82 µM in the experiment on SKOV3; 2.16 µM with Panc1.

Consider `O=c1onc(-c2ccccc2F)n1-c1ccccc1-c1nc(-c2ccccc2F)no1` [KJA17, 3-(2-Fluorophenyl)-4-(2-(3-(2-fluorophenyl)-1,2,4-oxadiazol-5-yl)phenyl)-1,2,4-oxadiazol-5(4H)-one], for which the IC50 came out at 1.43 µM in the experiment on MIA PaCa-2; 9.42 ± 1.61 µM in the experiment on NCI/ADR-RES; 9.12 ± 0.88 µM in the experiment on OVCAR8; 25.6 µM with SKOV3; 3.17 µM with Panc1.

For the compound `COc1cc(-c2nc(-c3ccccc3Cl)no2)c(-n2c(-c3ccccc3Cl)noc2=O)cc1OC` [KJA10, 3-(2-Chlorophenyl)-4-(2-(3-(2-chlorophenyl)-1,2,4-oxadiazol-5-yl)-4,5-dimethoxyphenyl)-1,2,4-oxadiazol-5(4H)-one], the IC50 in the experiment on MIA PaCa-2 amounted to 0.71 µM; with NCI/ADR-RES it was 2 ± 0.76 µM; in the experiment with OVCAR8, 0.71 ± 0.08 µM; with SKOV3, 3.23 ± 0.37 µM; in the experiment on Panc1, 1.08 µM.

Turning to `O=c1onc(-c2ccc(F)cc2)n1-c1ccccc1-c1nc(-c2ccc(F)cc2)no1` [KJA04, 3-(4-Fluorophenyl)-4-(2-(3-(4-fluorophenyl)-1,2,4-oxadiazol-5-yl)phenyl)-1,2,4-oxadiazol-5(4H)-one], the IC50 in the experiment on MIA PaCa-2 turned out to be 5.17 µM; in the experiment on NCI/ADR-RES, 7.63 ± 3.01 µM; in the experiment with OVCAR8, 7.21 ± 1.55 µM; in the experiment with SKOV3, 20.9 µM; in the experiment with Panc1, 3.22 µM.

Regarding `Cc1sc2c(c1C)C(c1ccc(Cl)cc1)=N[C@@H](CC(=O)OC(C)(C)C)c1nnc(C)n1-2` [JQ1, reference compound], the c-MYC protein levels result with c-MYC [1] is “down-regulation”. Also, the C-MYC expression result in the experiment with C-MYC [2] was “did not inhibit C-MYC expression”.

Turning to `CC(=O)O[C@H]1C(=O)[C@@]2(C)[C@H]([C@H](OC(=O)c3ccccc3)[C@]3(O)C[C@H](OC(=O)[C@H](O)[C@@H](NC(=O)c4ccccc4)c4ccccc4)C(C)=C1C3(C)C)[C@]1(OC(C)=O)CO[C@@H]1C[C@@H]2O` [Paclitaxel, reference compound], the IC50 is under 0.04 µM with MIA PaCa-2, over 30 µM in the experiment on NCI/ADR-RES, under 0.04 µM with OVCAR8 and under 0.04 µM with Panc1.

`O=c1onc(-c2ccc(Cl)cc2)n1-c1ccccc1-c1nc(-c2ccc(Cl)cc2)no1` [KJA02, 3-(4-Chlorophenyl)-4-(2-(3-(4-chlorophenyl)-1,2,4-oxadiazol-5-yl)phenyl)-1,2,4-oxadiazol-5(4H)-one]: the IC50 with MIA PaCa-2 is 1.12 µM; in the experiment on NCI/ADR-RES it was 4.16 ± 2.61 µM; in the experiment with OVCAR8 it was 1.96 ± 0.42 µM; in the experiment on SKOV3 it was 11.2 µM; with Panc1, 1.51 µM.

Usually IC50 stands for the midpoint of a concentration-inhibition curve.
